Tested on: platelets
Assay: luminometric determination of collagen-induced ATP release from platelets
Assay type: cell-based
Conditions: platelet rich plasma, 2 μg/ml collagen, RGDS 30 μM; p<0.002 versus collagen alone
Excerpt: Miniaturised (96 well format) high-throughput screening assays capable of assessing platelet activation that are suitable for screening potential anti-thrombotic agents have been developed. The primary assay is based on the phenomenon that platelet activation results in a substantial release of ATP from dense granules. Released ATP is then rapidly quantitated in a plate reader using bioluminescence and is proportional to the extent of platelet activation.
Platelet rich plasma was stimulated by automated injection of 2 μg/ml collagen in the presence or absence of commercially available RGDS (30 μM). Relative light output was then measured automatically in a BMG Fluostar plate reader.
Fibrinogen was digested with either Lys-C (A) or trypsin (B) prior to fractionation as described in FIGS. 2 and 3.

RGDS
inhibition of collagen-induced ATP release: 30%

Source: patent US20060147992A1, “Method for detection of bioactive peptides” (priority 2002, published 2006)
